Source: ChEMBL document CHEMBL5360558, “Molecular design, synthesis and anticancer activity of new thiopyrano[2,3-d]thiazoles based on 5-hydroxy-1,4-naphthoquinone (juglone)” (Eur J Med Chem, 2023)

Columns and labels:
[1] = GSH reactivity of compound at pH 7.4 phosphate buffer assessed as GSH-adduct formation at 1 mM incubated for 1 hr by spectrophotometric analysis; type: physicochemical; details: pH 7.4, 1 h, 1000 µM
HCT-116 = experiment: Cytotoxicity against human HCT-116 cells assessed as cell growth inhibition incubated for 72 hrs by MTT assay; type: functional, cell-based; details: HCT-116, 72 h
KB 3-1 = experiment: Cytotoxicity against human KB 3-1 cells assessed as cell growth inhibition incubated for 72 hrs by MTT assay; type: functional, cell-based; details: KB 3-1, 72 h
[2] = Cytotoxicity against mouse J774.2 cells assessed as cell growth inhibition incubated for 72 hrs by MTT assay; type: toxicity, cell-based
[3] = GSH reactivity of compound at pH 7.4 phosphate buffer assessed as GSH-adduct formation at 1 mM incubated for 1 hr in presence of sodium borohydride by spectrophotometric analysis; type: physicochemical; details: pH 7.4, 1 h, 1000 µM
MCF7 = experiment: Cytotoxicity against human MCF7 cells assessed as cell growth inhibition incubated for 72 hrs by MTT assay; type: functional, cell-based; details: MCF7, 72 h
[4] = Cytotoxicity against human HCT116-p53-null cells assessed as cell growth inhibition incubated for 72 hrs by MTT assay; type: functional, cell-based
K562 = experiment: Cytotoxicity against human K562 cells assessed as cell growth inhibition incubated for 72 hrs by MTT assay; type: functional, cell-based; details: K562, 72 h
Salmon testes DNA = experiment: Displacement of methyl green from salmon sperm DNA assessed as DNA intercalation at 10 uM incubated for 24 hrs by fluorescence plate reader method relative to control; type: nucleic-acid assay; details: Salmo salar
[5] = Cytotoxicity against mouse NIH3T3 cells assessed as cell growth inhibition incubated for 72 hrs by MTT assay; type: toxicity, cell-based
[6] = Cytotoxicity against human HaCaT cells assessed as cell growth inhibition incubated for 72 hrs by MTT assay; type: toxicity, cell-based; details: HaCaT cells
[7] = Antileukemic activity against human CLL cell assessed as cell growth inhibition incubated for 72 hrs in presence of BST by MTT assay; type: functional, cell-based
[8] = Acute toxicity in C57BL/6 mouse assessed as neutrophil count at 20 mg/kg,ip administration and observed after 22 days; type: organism-based; details: in vivo, 528 h, time 22 day
[9] = Antileukemic activity against human CLL cell assessed as cell growth inhibition incubated for 72 hrs by MTT assay; type: functional, cell-based
[10] = Acute toxicity in C57BL/6 mouse assessed as lymphocyte count at 20 mg/kg,ip administration and observed after 22 days; type: organism-based; details: in vivo, 528 h, time 22 day
[11] = Acute toxicity in C57BL/6 mouse assessed as animal death at 20 mg/kg,ip administration observed after 13 days; type: organism-based; details: in vivo, 312 h, time 13 day
M14 = experiment: Anticancer activity against human M14 cells assessed as cell growth at 10 uM incubated for 48 hrs by sulforhodamine B assay; type: functional; details: read-out: Activity
[12] = Cytotoxicity against human Lymphocyte cells assessed as cell growth inhibition incubated for 72 hrs by MTT assay; type: toxicity, cell-based; details: lymphocytes
SK-MEL-5 = experiment: Anticancer activity against human SK-MEL-5 cells assessed as cell growth at 10 uM incubated for 48 hrs by sulforhodamine B assay; type: functional; details: read-out: Activity
[13] = Acute toxicity in C57BL/6 mouse assessed as anemia at 20 mg/kg,ip administration observed after 22 days; type: organism-based; details: in vivo, 528 h, time 22 day
MDA-MB-435 = experiment: Anticancer activity against human MDA-MB-435 cells assessed as cell growth at 10 uM incubated for 48 hrs by sulforhodamine B assay; type: functional; details: read-out: Activity
[14] = Acute toxicity in C57BL/6 mouse assessed as leukopenia at 20 mg/kg,ip administration observed after 22 days; type: organism-based; details: in vivo, 528 h, time 22 day
[15] = Antileukemic activity against human CLL cell assessed as cell growth inhibition incubated for 72 hrs during remission period by MTT assay; type: functional, cell-based
SNB-75 = experiment: Anticancer activity against human SNB-75 cells assessed as cell growth at 10 uM incubated for 48 hrs by sulforhodamine B assay; type: functional; details: read-out: Activity
[16] = Acute toxicity in C57BL/6 mouse assessed as decrease in body mass at 20 mg/kg,ip administration observed after 6 days; type: organism-based; details: in vivo, 144 h, time 6 day
[17] = Acute toxicity in C57BL/6 mouse assessed as decrease in body mass at 6.6 mg/kg,ip administration; type: organism-based; details: in vivo
SK-MEL-2 = experiment: Anticancer activity against human SK-MEL-2 cells assessed as cell growth at 10 uM incubated for 48 hrs by sulforhodamine B assay; type: functional; details: read-out: Activity
[18] = Acute toxicity in C57BL/6 mouse assessed as animal death at 20 mg/kg,ip administration observed after 8 days; type: organism-based; details: in vivo, 192 h, time 8 day
A498 = experiment: Anticancer activity against human A498 cells assessed as cell growth at 10 uM incubated for 48 hrs by sulforhodamine B assay; type: functional; details: read-out: Activity
COLO 205 = experiment: Anticancer activity against human COLO 205 cells assessed as cell growth at 10 uM incubated for 48 hrs by sulforhodamine B assay; type: functional; details: read-out: Activity

SMILES	Activity (Salmon testes DNA) [%]	IC50 (HCT-116) [µM]	IC50 (KB 3-1) [µM]	IC50 at 72 h [2] [µM]	IC50 (MCF7) [µM]	IC50 [4] [µM]	IC50 (K562) [µM]	IC50 at 72 h [5] [µM]	IC50 at 72 h [6] [µM]	other results
O=C1C=CC(=O)c2c(O)cccc21 [JUGLONE]	–	31.6	26.4	13.4	–	–	–	–	–	Activity [1]: Active; Activity [3]: Active
O=C1C2=C(C(=O)c3c(O)cccc31)C(/C=C/c1ccccc1[N+](=O)[O-])c1sc(=O)[nH]c1S2 (configuration not stated)	53.2	0.94	6.94	0.83	0.95	2.16	15.7	–	–	–
C/C(=C\c1ccccc1)C1C2=C(Sc3[nH]c(=O)sc31)C(=O)c1cccc(O)c1C2=O (configuration not stated)	29.5	40.6	47.5	30.8	> 50	41.7	33	–	–	–
COc1cccc2c1C(=O)c1c(O)c3c(c(O)c1C2=O)C[C@@](O)(C(=O)CO)C[C@@H]3O[C@H]1C[C@H](N)[C@H](O)[C@H](C)O1 [DOXORUBICIN]	–	0.58	0.56	0.56	–	0.63	0.59	0.72	4.56	IC50 [7]: 8.6 µM; Activity [8]: 45.05%; IC50 [9]: > 10 µM; Activity [10]: 50.35%; Activity [11]: Toxic; growth at 10 µM (M14): -71.6%; IC50 at 72 h [12]: 10 µM; growth at 10 µM (SK-MEL-5): -86.4%; Activity [13]: Toxic; growth at 10 µM (MDA-MB-435): -82.6%; Activity [14]: Toxic; IC50 [15]: 7.33 µM; growth at 10 µM (SNB-75): -76.1%; Activity [16]: Toxic; Activity [17]: Toxic; growth at 10 µM (SK-MEL-2): -82.6%; Activity [18]: Toxic; growth at 10 µM (A498): -75.1%; growth at 10 µM (COLO 205): -81.6%
O=C1NC(=S)/C(=C/c2ccco2)S1	–	–	–	–	–	–	–	–	–	Activity [1]: Active; Activity [3]: Active

More lines, main results first:

Activity (Salmon testes DNA) [%]	SMILES	IC50 (HCT-116) [µM]	IC50 (KB 3-1) [µM]	IC50 at 72 h [2] [µM]	IC50 (MCF7) [µM]	IC50 [4] [µM]	IC50 (K562) [µM]	IC50 at 72 h [5] [µM]	IC50 at 72 h [6] [µM]	other results
29.5	O=C1C2=C(C(=O)c3c(O)cccc31)C(c1cc(Cl)ccc1O)c1sc(=O)[nH]c1S2 (configuration not stated)	0.75	3.64	5.25	9.34	3.86	11.8	37	> 50	–
29.5	O=C1C2=C(C(=O)c3c(O)cccc31)C(c1ccc(Br)cc1)c1sc(=O)[nH]c1S2 (configuration not stated)	4.7	2.74	2.03	31.2	3.82	6.31	30.4	> 50	–
11.8	O=C1C2=C(C(=O)c3c(O)cccc31)C(/C=C/c1ccccc1)c1sc(=O)[nH]c1S2 (configuration not stated)	35.6	46.4	7.44	7.41	43.7	28.4	–	–	–
